Data on ten compounds can be found in ChEMBL document CHEMBL1138213, “Novel multipotent tacrine-dihydropyridine hybrids with improved acetylcholinesterase inhibitory and neuroprotective activities as potential drugs for the treatment of Alzheimer's disease” (J Med Chem, 2006).

Broadly, the IC50 is the midpoint of a concentration-inhibition curve. Higher therefore signals lower potency. In general, inhibition refers to the change of the read-out against control, counted positive when it falls. Low readings indicate a weak effect, high ones a strong effect.

The target of test [1] is Acetylcholinesterase (Electrophorus electricus, UniProt O42275).
Description: Inhibition of Electrophorus electricus AChE
The target in test [2] is Acetylcholinesterase (Homo sapiens, UniProt P22303).
Description: Inhibition of human erythrocyte AChE
The target in another test is Cholinesterase (Homo sapiens, UniProt P06276).
A further test is described as follows: cells. The settings on record: Homo sapiens, SH-SY5Y.
A further test concerns SH-SY5Y. Kind of test: cells. Conditions: Homo sapiens, read-out: Activity.

Chain of Acetylcholinesterase (Homo sapiens, UniProt P22303) (P22303 whole entry): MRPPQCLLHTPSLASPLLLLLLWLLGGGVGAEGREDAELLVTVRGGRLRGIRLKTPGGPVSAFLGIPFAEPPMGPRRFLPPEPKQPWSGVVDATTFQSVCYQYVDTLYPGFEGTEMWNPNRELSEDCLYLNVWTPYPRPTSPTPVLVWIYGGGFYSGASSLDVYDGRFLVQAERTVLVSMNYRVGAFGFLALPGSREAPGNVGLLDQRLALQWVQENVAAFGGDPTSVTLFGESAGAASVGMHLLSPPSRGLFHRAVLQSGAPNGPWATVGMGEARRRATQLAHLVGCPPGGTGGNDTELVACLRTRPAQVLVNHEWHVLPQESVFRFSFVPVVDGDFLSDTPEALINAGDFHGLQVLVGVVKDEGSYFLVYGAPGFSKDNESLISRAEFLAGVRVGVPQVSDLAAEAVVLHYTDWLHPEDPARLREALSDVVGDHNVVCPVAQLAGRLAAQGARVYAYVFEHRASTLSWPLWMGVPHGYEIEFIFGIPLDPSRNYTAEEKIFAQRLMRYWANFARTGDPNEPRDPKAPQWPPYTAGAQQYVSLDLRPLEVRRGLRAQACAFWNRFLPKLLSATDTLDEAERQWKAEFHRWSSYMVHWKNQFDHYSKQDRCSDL
Chain of Cholinesterase (P06276 whole entry): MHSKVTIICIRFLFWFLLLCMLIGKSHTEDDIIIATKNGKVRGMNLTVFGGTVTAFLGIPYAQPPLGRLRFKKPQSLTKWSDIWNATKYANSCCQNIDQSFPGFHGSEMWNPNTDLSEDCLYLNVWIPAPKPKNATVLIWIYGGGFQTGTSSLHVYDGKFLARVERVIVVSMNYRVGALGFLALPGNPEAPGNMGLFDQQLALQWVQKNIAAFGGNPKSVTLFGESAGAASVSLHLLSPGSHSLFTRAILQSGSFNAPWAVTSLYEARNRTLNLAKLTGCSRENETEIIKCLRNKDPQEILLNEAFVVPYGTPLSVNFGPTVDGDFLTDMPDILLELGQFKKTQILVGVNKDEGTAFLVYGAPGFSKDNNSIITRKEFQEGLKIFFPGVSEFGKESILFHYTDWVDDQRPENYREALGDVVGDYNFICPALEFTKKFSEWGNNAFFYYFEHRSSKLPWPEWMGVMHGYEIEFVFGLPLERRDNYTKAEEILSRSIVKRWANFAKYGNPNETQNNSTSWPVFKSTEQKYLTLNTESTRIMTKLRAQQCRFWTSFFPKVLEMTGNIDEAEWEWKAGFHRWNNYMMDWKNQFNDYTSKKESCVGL
Chain of Acetylcholinesterase (Electrophorus electricus, UniProt O42275) (O42275 whole entry): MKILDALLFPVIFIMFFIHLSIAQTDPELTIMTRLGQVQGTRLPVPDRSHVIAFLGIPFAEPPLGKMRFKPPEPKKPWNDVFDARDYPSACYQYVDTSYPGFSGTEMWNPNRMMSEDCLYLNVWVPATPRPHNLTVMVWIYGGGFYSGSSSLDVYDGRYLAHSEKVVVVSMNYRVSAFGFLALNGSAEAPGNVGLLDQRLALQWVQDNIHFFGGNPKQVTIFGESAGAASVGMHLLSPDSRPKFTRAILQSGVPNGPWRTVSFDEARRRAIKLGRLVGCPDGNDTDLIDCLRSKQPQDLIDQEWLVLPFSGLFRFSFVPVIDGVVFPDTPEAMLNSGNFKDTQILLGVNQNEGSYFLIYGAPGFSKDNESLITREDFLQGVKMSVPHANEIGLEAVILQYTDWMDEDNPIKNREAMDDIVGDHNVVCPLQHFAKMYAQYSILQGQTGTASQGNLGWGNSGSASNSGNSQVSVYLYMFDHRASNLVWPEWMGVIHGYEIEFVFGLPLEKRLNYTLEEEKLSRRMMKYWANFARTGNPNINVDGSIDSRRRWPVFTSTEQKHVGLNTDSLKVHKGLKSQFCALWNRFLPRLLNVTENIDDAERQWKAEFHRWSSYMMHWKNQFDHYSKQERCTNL
Description for SH-SY5Y: Viability of SH-SY5Y cells measured as neuroprotection activity in presence of H2O2 at 0.3 uM relative to control

As to `CCOC(=O)C1=C(C)Nc2nc3c(c(N)c2C1c1ccccc1)CCCC3` (stereo not drawn), the IC50 was 80 nM against Acetylcholinesterase [1], 122 nM on Acetylcholinesterase [2] and over 100000 nM against Cholinesterase. In the test “cells”, this compound showed an inhibition at 0.3 µM of 36.6%. Also, the viability at 0.3 µM in the test with SH-SY5Y came to 30.6%.

In turn, `CCOC(=O)C1=C(C)Nc2nc3c(c(N)c2C1c1ccccc1OC)CCCC3` (stereo not drawn) gave an inhibition at 0.3 µM in “cells” of 46.5%.

In the case of `CCOC(=O)C1=C(C)Nc2nc3c(c(N)c2C1c1ccc([N+](=O)[O-])cc1)CCCC3` (stereo not drawn), the 50% inhibitory concentration (IC50) amounted to 600 nM against Acetylcholinesterase [1], 309 nM against Acetylcholinesterase [2] and 34400 nM on Cholinesterase. In the test “cells”, this compound showed an inhibition at 0.3 µM of 66.7%. For the same compound, the viability at 0.3 µM with SH-SY5Y stood at 35.5%.

Turning to `COCCOC(=O)C1=C(C)NC(C)=C(C(=O)OC(C)C)C1c1cccc([N+](=O)[O-])c1` (stereo not drawn) [NIMODIPINE], in the test “cells”, the inhibition at 0.3 µM came to 45.5%. Also, in the test with SH-SY5Y, the viability at 0.3 µM was found to be 36%.

`CCOC(=O)C1=C(C)Nc2nc3c(c(N)c2C1c1cccc(OC)c1)CCCC3` (stereo not drawn) came in with an inhibition at 0.3 µM in the test “cells” of 31%.

The compound `CCOC(=O)C1=C(C)Nc2nc3c(c(N)c2C1c1cccc([N+](=O)[O-])c1)CCCC3` (stereo not drawn) yielded an inhibition at 0.3 µM in “cells” of 33.6%.

In “cells”, `CCOC(=O)C1=C(C)Nc2nc3c(c(N)c2C1c1ccc(F)cc1)CCCC3` (stereo not drawn) returned an inhibition at 0.3 µM of 22.2%.

As to `CCOC(=O)C1=C(C)Nc2nc3c(c(N)c2C1c1ccccc1[N+](=O)[O-])CCCC3` (stereo not drawn), in the test “cells”, testing at 0.3 µM gave an inhibition of 32.6%.

As to `CCOC(=O)C1=C(C)Nc2nc3c(c(N)c2C1c1ccc(C)cc1)CCCC3` (stereo not drawn), the values for the 50% inhibitory concentration (IC50) against Acetylcholinesterase [1], at Acetylcholinesterase [2] and against Cholinesterase were 91 nM, 169 nM and over 100000 nM, respectively. The compound further had an inhibition at 0.3 µM in the test “cells” of 29.8%. Also, in the test on SH-SY5Y, the viability at 0.3 µM was 53.7%.

As to `CCOC(=O)C1=C(C)Nc2nc3c(c(N)c2C1c1ccc(OC)cc1)CCCC3` (stereo not drawn), in “cells”, the inhibition at 0.3 µM came to 32.8%.
